Data reported in patent US6649797B2, “Compounds and methods of use to treat infectious diseases” (The Picower Institute for Medical Research, priority 1996, dated 2003).

Assays:
[1] = Toxicity in mice, median lethal dose by intraperitoneal injection; assay type: in vivo, mouse
Procedure: The doses of compounds of the invention found to be lethal to 50% of the mice (LD50) were determined by intraperitoneal injection of groups of five animals with increasing doses of each compound. CNI-0294 was administered from 0, 2, 10, 20, 40, 80, 160, 320, 640, 1280 mg/kg in 0.5 ml of water/HCl; CNI-1594 at 0, 2.4, 5, 10, 20, 40, 80 mg/kg in 0.5 ml of water/HCl; CNI-1794 at 0, 20, 50, 80 mg/kg in 0.5 ml of water/HCl; and CNI-1894 at 0, 10, 20, 40, 80, 240, 480, 960 mg/kg in water/HCl. […] The percentage of animals in each group which died were utilized to calculate the LD50 by non-linear curve fitting with the Enzfit software (Elsevier Bioscience; Cambridge, UK) programmed with the Chou equation (Chou 1976, J Theor Biol 39:253-276)).

[2] = target: T1, pseudovirion-derived nucleoprotein complexes / karyopherin α (Human immunodeficiency virus type 1 group M subtype B, UniProt P04591); assay: Binding of pseudovirion-derived nucleoprotein complexes to GST-karyopherin α; assay type: biochemical, HIV-1; conditions: various concentrations
T1 construct: composed exclusively of Gag (MA, CA, NC, p6) and Env (gp41 and gp120) proteins; endogenous in cells; host or cells: cytoplasmic lysate of H9 cells inoculated with HIV-like gag-env pseudovirions (Haffar et al. 1990)
Procedure: Cytoplasmic lysates of H9 cells infected with HIV-1RF (upper panel) or HIV-like pseudovirions (bottom panel) were treated for 2 hours with various concentrations of CNI-H0294, and were then mixed with GST-karyopherin α immobilized on glutathione Sepharose beads. HIV-1 DNA or RNA that co-precipitated with karyopherin α was quantified as in A and B.
H9 cells were infected with HIV-1 or HIV-like pseudovirions (Haffar, et al., 1990, J. Virol., 64:2653-2659) at a multiplicity adjusted according to p24 content (50 ng p24 per 10^6 cells) The MA NLS^− virus contains substitutions of isoleucine residues for lysines in positions 26 and 27 of MA in an NLHX backbone (Westervelt., et al., 1992, J. Virol. 66:2577-2582), thus inactivating the NLS. The Vpr^− virus has the initiating ATG of the vpr gene changed to GTG, thus abolishing expression of this gene. The ΔMA NLS pseudovirions have leucine substituting for lysine in position 28 of MA. This mutation abrogates nuclear translocation of HIV-1 gag RNA in growth-arrested H9 cells infected with pseudovirions. […]
Cytoplasmic extracts prepared from HIV-1-or pseudovirion-infected H9 cells were adjusted to 0.14 M NaCl, 0.1% Tween 20 and precleared with glutathione-Sepharose beads for 30 min. at room temperature. Karyopherin α was expressed as a fusion protein with glutathione S-transferase (GST) which can bind glutathione beads in solution. […]

recombinant MA = target: T2, recombinant MA (Human immunodeficiency virus type 1 group M subtype B, UniProt P04591); assay: Binding of [14C]-CNI-H0294 to recombinant MA in solution (immunoprecipitation); parameters: species or system HIV-1
T2 construct: 0.28 nanomoles of recombinant MA or RT [p66/p51 ] dimer
Procedure: Twenty nmol of [^14C]-CNI-HO294 were mixed with 0.28 nmol of recombinant MA or RT (a p51/p66 heterodimer) in 40 μl of binding buffer. Samples were incubated for 2 h at 37° C. in the presence or absence of 200 nmol of unlabeled CNI-H0294. MA and RT proteins were immunoprecipitated using protein G agarose and sheep polyclonal anti-MA (αMA) or rabbit anti-RT (αRT) sera, respectively. Pre-immune sera (PI) was used as control. Bound material was eluted from protein G using 0.1 M glycine buffer [pH 2.8] and the radioactivity in the eluate was quantified in a scintillation counter.
0.28 nanomoles of recombinant MA or RT [p66/p51 ] dimer were mixed with 20 nmol of [^14C] CNI-HO294 (specific activity 5×10^4 cpm/nmol) and incubated 2 hr at room temperature in 40 μl of binding buffer (PBS supplemented with 1% BSA, 0.1% Tween 20, 1 μg/ml leupeptin, 1 μg/ml aprotinin, 1 mM PMSF). Sheep anti-MA or rabbit anti-RT sera (both obtained from NIH AIDS Research and Reference Reagent Program) or pre-immune control sera were then added (at 1:100 dilution) and incubation continued for another 1 hr at room temperature. Immune complexes were precipitated with protein G-agarose, washed, and then eluted with 0.1 M glycine, pH 2.8. Radioactivity of the eluate was measured in a scintillation counter.

[3] = tested on: BSA with conjugated NLS peptides that mimic the NLS of SV40 large T antigen; assay: Nuclear import of BSA with conjugated NLS peptides of SV40 large T antigen
[4] = target: T3, karyopherin α / purified recombinant MA (Human immunodeficiency virus type 1 group M subtype B, UniProt P04591); assay: Binding of karyopherin α to purified recombinant MA; assay type: biochemical, HIV-1
T3 construct: or to purified recombinant MA

CC(=O)c1cc(Nc2cc(C)[n+](C)c(N)n2)cc(C(C)=O)c1 [CNI-0294, 2-Amino-4-(3,5-diacetylphenyl)amino-1,6-dimethylpyrimidinium chloride]
visible signs of toxicity [1]: no overt signs of toxicity detectable at doses approaching the LD50
LD50 ± standard deviation ([1]; listed as CNI-H0294): 590 mg/kg
LD50 ([1]; mouse, in vivo, ip, read-out: LD50 ± standard deviation): 588 mg/kg
inhibition of binding of karyopherin α to pseudovirion-derived nucleoprotein complexes [2]: did not inhibit
binding to recombinant MA (recombinant MA): No binding was observed
block of nuclear import of BSA with conjugated NLS peptides [3]: did not block
inhibition of binding of karyopherin α to purified recombinant MA [4]: did not inhibit
